From US6887894B2, “Use of lipoic acid for improving the bioavailability of mineral salts” (BASF Aktiengesellschaft, priority 2000, dated 2005)
Several values for one entry are separate records, joined by “and”; a condition that tells them apart may be missing. Identical values can stand only once. Marks after values point to notes of the source that are not given here.

Experiments:
metallothionin = test: Study 3: metallothionin in liver tissue; assay type: in vivo; conditions: rats; for Metallothionin concentration in liver tissue: day 28
Procedure: (§1) 36 male Wistar albino rats (Harlan Winkelmann, Borchen) having an initial weight of 47.0±2.63 g were randomly divided into 6 groups each of 6 animals and fed the diets specified in Table 7 (experimental design) and Section 5.2 over a period of 28 days. The animals were kept individually in Makrolon cages on stainless grids under standard conditions (22° C., 55% relative humidity, 12 hour light/dark rhythm). Feed and deionized drinking water were available to the experimental animals ad libitum. During the 2nd and 3rd experimental week (metabolism phase) feces were collected quantitatively. After completion of the experimental phase (day 28), the animals were decapitated under CO2— anesthesia, exsanguinated and the tissue to be analyzed was removed. Groups Ib, IIb and IIIb here are Example 5, while Groups Ia, IIa and IIIa are Comparison Example 2.
Total MT concentration in liver tissue was determined using the cadmium-binding method of EATON and TOAL (EATON, D. L., TOAL, B. F. (1982): Evaluation of the cadmium/hemoglobin affinity assay for the rapid determination of metallothionein in biological tissues. Toxicol Appl. Pharmacol. 66, 134-142) in a modification tested at the Giessen Institute (LEUNERT, V. (1994): Einfluβ von Zink sowie fetalem Kälberserum, bovinem Serumalbumin und calciummobilisierenden Rezeptoragonlsten auf Metallothionein in primär kultivierten Rattenhepatocyten [Effect of zinc and fecal calf serum, vine serum albumin and calcium-immobilizing receptor agonists on metallothionin in primary cultivations of rat hepatocytes]. Inaugural dissertation at the Institut für Tierernahrung und Ernährungse-physiologie [Institute of Animal Nutrition and Nutritional Physiology] of the University of Cicesen, Verlag Shaker, Aachen, PALLAUF et al. 1995). The protein content in liver homogenates war determined using the Lowry-Folin method (DAWSON, R. M. C. ELLIOTT, D C; JONES, K. M. (1986): Data for biochemical research, 3rd ed., Clarendon Press, New York, 543). • 5.3.5. Statistical analysis

[1] = Study 3: Zn intake, fecal excretion and apparent absorption of zinc; assay type: in vivo; conditions: rats
Procedure: as §1
During the two-week metabolism phase, the rat feces were collected daily, adherent feed residues and other impurities were removed and the samples were stored at −20° C. At the end of the metabolism period the fecal weight was determined quantitatively and feces were then freeze-dried under vacuum over a period of 48 h (Gamma 1-20, Christ, Osterode). The dried samples were finely around using a domestic grinder (Moulinette electronic 89902) and stored at ambient temperature in PE bottles.
A sample aliquot of 1.5 g or the freeze-dried and ground fecal samples was dried for 24 h at 105° C. to remove residual water and then ashed in a muffle furnace at 450° C. for 21 h. The ash residue was dissolved by acid addition and then analyzed quantitatively. The Zn concentration in the fecal samples was determined by flame-AAS (Philips, PU 9400, Kassel). • 5.3.4 Diagnosis of Zn status
(§2) Zn absorption was calculated, without taking into account endogenous level as a difference between element […] and fecal excretion (=apparent absorption). Plasma Zn concentration was determined by AAS (Philips, PU 9400, Kassel). The samples were diluted with 0.1 M HCl in a ratio of 1:20 (v/v). The activity of the Zn metalloenzyme alkaline phosphatase (AP) (E.C. 3.1.3.1) wan assayed using the individual chemicals diethanolamine buffer and p-nitrophenyl phosphate according to the recommendations of the […] FÜR […] CHIMIE [German Clinical Chemistry Society] ([…] FÜR […] CHEMIE (1972). Standardmethode zur Bestimmung der Aktivität der alkalischen Phosphatase (AP) [Standard Method for Determining Alkaliur Phosphatase (AP) Activity]. Z. klin. Chem u. klin. Biochemie. 10, 191). • 5.3.5 Metallothionin in liver tissue

[2] = system: alkaline phosphatase (AP) (E.C. 3.1.3.1); test: Study 3: alkaline phosphatase activity in plasma; assay type: in vivo; conditions: rats, day 28
Procedure: as §1, §2

[3] = Study 1/Study 2: bioavailability of Zn lipoate and ZnSO4 in rats (Example 4, Comparison Example 1); assay type: in vivo; conditions: for zinc deficiency symptoms (anorexia, alopecia, depression of growth): diet with 0.4% NaPA, high dose 20 mg Zn/kg of feed, 28 days
Procedure: Male Albino rats (Wistar) of an initial weight of 40 g were used. The animals were kept during each 28-day experimental period at a room temperature of 22° C., a relative humidity of approximately 55% and in a 12-hour light-dark cycle. The rats were housed individually in Makrolon cages with stainless steel bottoms which permitted controlled feed intake and quantitative collection of feces and urine. The feed was provided once a day at 8^00. The live mass of the rats was determined weekly, feces and urine were collected every day at 10^00 and 17^00. At the end of the experiment, the rats were decapitated after chloroform anesthesia. • 4.2 Description of the diets and experimental design
6 rats are used per experimental group. The mealy diets were administered ad lib. […] The control group (group 1) received the PA-free base diet.
The amounts of feces and urine produced separately in the metabolic cages are collected quantitatively every day and stored at −22° C. To avoid any losses of N in the urine collection vessels, 1 ml of 20% strength HCl (Suprapur) is added to each of the vessels daily. For further analysis, the sample material is freeze-dried for 48 h. • 4.3.2 Organ and tissue samples
The right femur, liver and testes are removed immediately after decapitation and complete exsanguination of the animals and the fresh mass is determined. The samples are sealed in plastic film and stored at −22° C. until further analysis. • 4.3.3 Blood
The rats are decapitated at the end of the experiment after complete narcosis with chloroform and the blood collected in heparinized plastic tubes. 40 I.U. of heparin sodium are introduced per ml of blood. […]
Zinc is determined by means of atomic absorption spectrophotometry (AAS) in an acetylene flame. • 4.5 Diagnosis of zinc status • 4.5.1 Determination of the plasma zinc concentration
The plasma zinc concentration is measured directly in the flame by means of AAS (Philips, PIJ 9400). […]
The enzyme activity is measured kinetically on a semimicroscale at a wavelength of 405 nm and 25° C. using a UV spectrophotometer. […]

[4] = Study 3: Zn concentration in the femur; assay type: in vivo; conditions: rats; for Zn concentration in Femur: day 28
Procedure: as §1
The ash solutions were prepared by the principle of wet ashing. The sample material was admixed with 10 ml of 65% strength HNO3 (Merck, Suprapur) and then boiled under a reflux condenser in a digestion apparatus (Gerhardt SMA-20, Bonn). This oxidatively degraded the organic matrix and completely mineralized the test material. The Zn concentration was determined in the ash solutions by flame-AAS (Philips, PU 9400, Kassel). • 5.3.3 Analysis of the fecal samples

[5] = Study 3: zootechnical parameters (feed intake, live weight) of growing rats; assay type: in vivo; conditions: for LW Gain: 28 days; for Live weight d0: initial weight
Procedure: as §1
Parameters used to estimate Zn availability were the zootechnical parameters feed intake, live weight development and live weight increase, apparent Zn absorption, alkaline phosphatase activity in plasma, plasma and femur Zn concentration and metallothionin concentration in liver tissue. • 5.2 Experimental diets
The experimental animals were fed semisynthetic diets based on high-purity components (corn starch, egg albumin protein, sucrose, soybean oil and cellulose) over a period of 28 days (see Table 8 for composition of the base diet), the experimental diets differing with respect to the type of zinc compound supplemented, the absolute Zn concentration and the phytic acid content (0.4% PA from NaPA, Sigma-Aldrich, Steinheim) (see Table 7).
Zn supplements used were Zn ((R)-α-Lipoat)2(H2O)2 from Example 1 (Example 5) and Zn sulfate (ZnSO4.7 H2O analytical grade, Merck, Darmstadt) (Comparison Example 2). The Zn concentrations of the experimental diets Ia-IIb were set at a level of 10 mg/kg of diet estimated to be marginal for growing rats, in order to enable investigation of the availability of the Zn supplements under test in the suboptimun supply range.

[6] = Study 3: plasma Zn concentration; assay type: in vivo; conditions: rats, day 28
Procedure: as §1
The samples were diluted with 0.1 M HCl in a ratio of 1:20 (v/v). […] CHIMIE [German Clinical Chemistry Society]

[7] = in vivo; cited from earlier work
[8] = in vivo; cited from earlier work; remark: listed apart in the source
[9] = 10 ppm Zn, PA-free diet (group I)
[10] = 20 ppm Zn + 0.4% PA (group III)

## O=C(O)CCCC[C@@H]1CCSS1 [Zn lipoate, Zn((R)-α-lipoate)2(H2O)2]
metallothionin; 10 ppm Zn + 0.4% PA (group II)
  Metallothionin concentration in liver tissue: 7.94 ng MT/mg Protein
metallothionin; [9]
  Metallothionin concentration in liver tissue: 8.32 ng MT/mg Protein
metallothionin; [10]
  Metallothionin concentration in liver tissue: 8.71 ng MT/mg Protein
metallothionin; all groups (I, II and III)
  hepatic MT concentration, Zn lipoate versus ZnSO4 as Zn source: nominal increases
[1]; 20 mg Zn/kg of diet + 0.4% PA (groups IIIa, IIIb)
  absolute Zn absorption, Zn lipoate group versus Zn sulfate group: statistically significant higher
[1]; 10 ppm Zn + 0.4% PA (group II)
  Apparent absorption of Zn: 47.3 ^a %
  Apparent absorption of Zn (absolute): 0.446 ^a mg/14 d
  Fecal excretion of Zn: 0.494 ^a mg/14 d
[1]; [9]
  Apparent absorption of Zn: 73.6 ^b %
  Apparent absorption of Zn (absolute): 1.24 ^b mg/14 d
  Fecal excretion of Zn: 0.445 ^a mg/14 d
[1]; [10]
  Apparent absorption of Zn: 48.4 ^a %
  Apparent absorption of Zn (absolute): 1.60 mg/14 d and 1.60 ^c mg/14 d
  Fecal excretion of Zn: 1.71 ^b mg/14 d
[1]; PA diets, group IIa to IIb and IIIa to IIIb
  apparent Zn absorption (%), effect of Zn lipoate supplementation: increase
[2]; 10 ppm Zn + 0.4% PA (group II)
  Alkaline Phosphatase activity in plasma: 225 ^a mU/ml Plasma
[2]; [9]
  Alkaline Phosphatase activity in plasma: 365 ^b mU/ml Plasma
[2]; [10]
  Alkaline Phosphatase activity in plasma: 384 ^b mU/ml Plasma
[3]
  zinc deficiency symptoms (anorexia, alopecia, depression of growth): disappear completely
[3]; in comparison with Zn sulfate
  Zn status parameters of blood plasma (Zn concentration, free zinc binding capacity, alkaline phosphatase activity) and femur and liver Zn concentration: improved
[4]; 10 ppm Zn + 0.4% PA (group II)
  Zn concentration in Femur: 41.2 ^a μg/g FW
[4]; [9]
  Zn concentration in Femur: 79.2 ^c μg/g FW
[4]; [10]
  Zn concentration in Femur: 64.1 ^b μg/g FW
[4]; with addition of phytate
  level of Zn incorporation into the femur tissue, compared with Zn sulfate: beneficial effect
[5]; 10 ppm Zn + 0.4% PA (group II)
  Feed intake Total: 186 ^a g/28d
  Feed intake d1-d7: 39.5 ^ab g
  Feed intake d8-d14: 46.5 ^a g
  Feed intake d15-d21: 48.2 ^a g
  Feed intake d22-d28: 51.3 ^a g
  Live weight d7: 60.0^ab g
  Live weight d14: 82.5^a g
  Live weight d21: 99.1^a g
  Live weight d28: 114.2^a g
  LW Gain: 67.0^a g
  Live weight d0: 47.2 g
[5]; [9]
  Feed intake Total: 307 ^b g/28d
  Feed intake d1-d7: 54.9 ^ab g
  Feed intake d8-d14: 78.7 ^c g
  Feed intake d15-d21: 86.9 ^c g
  Feed intake d22-d28: 86.5 ^b g
  Live weight d7: 75.6^ab g
  Live weight d14: 122.5^b g
  Live weight d21: 159.2^c g
  Live weight d28: 185.8^c g
  LW Gain: 138.7^c g
  Live weight d0: 47.1 g
[5]; [10]
  Feed intake Total: 300 ^b g/28d
  Feed intake d1-d7: 60.0 ^b g
  Feed intake d8-d14: 77.3 ^c g
  Feed intake d15-d21: 79.2 ^bc g
  Feed intake d22-d28: 83.5 ^b g
  Live weight d7: 77.9^b g
  Live weight d14: 119.1^b g
  Live weight d21: 147.4^bc g
  Live weight d28: 173.2^bc g
  LW Gain: 125.9^bc g
  Live weight d0: 47.3 g
[5]; 28-day period, versus Zn sulfate groups
  total feed intake, change owing to Zn-α-lipoate feeding: increase
[5]; in each case (groups I, II, III)
  live weight gain, Zn lipoate compared with Zn sulfate: increase

## O.O.O.O.O.O.O.O=S(=O)([O-])[O-].[Zn+2] [Zn sulfate, ZnSO4.7 H2O]
metallothionin; 10 ppm Zn + 0.4% PA (group II)
  Metallothionin concentration in liver tissue: 6.36 ng MT/mg Protein
metallothionin; [9]
  Metallothionin concentration in liver tissue: 8.08 ng MT/mg Protein
metallothionin; [10]
  Metallothionin concentration in liver tissue: 7.58 ng MT/mg Protein
[1]; 10 ppm Zn + 0.4% PA (group II)
  Apparent absorption of Zn: 43.0 ^a %
  Apparent absorption of Zn (absolute): 0.351 ^a mg/14 d
  Fecal excretion of Zn: 0.484 ^a mg/14 d
[1]; [9]
  Apparent absorption of Zn: 76.4 ^b %
  Apparent absorption of Zn (absolute): 1.35 ^bc mg/14 d
  Fecal excretion of Zn: 0.411 ^a mg/14 d
[1]; [10]
  Apparent absorption of Zn: 43.9 ^a %
  Apparent absorption of Zn (absolute): 1.13 ^b mg/14 d
  Fecal excretion of Zn: 1.43 ^b mg/14 d
[6]; 10 ppm Zn + 0.4% PA (group II)
  Zn concentration in Plasma: 0.57 ^a μg/ml
[6]; [9]
  Zn concentration in Plasma: 1.11 ^bc μg/ml
[6]; [10]
  Zn concentration in Plasma: 0.80 ^ac μg/ml
[2]; 10 ppm Zn + 0.4% PA (group II)
  Alkaline Phosphatase activity in plasma: 216 ^a mU/ml Plasma
[2]; [9]
  Alkaline Phosphatase activity in plasma: 383 ^b mU/ml Plasma
[2]; [10]
  Alkaline Phosphatase activity in plasma: 347 ^b mU/ml Plasma
[3]
  zinc deficiency symptoms (anorexia, alopecia, depression of growth): still present
[4]; 10 ppm Zn + 0.4% PA (group II)
  Zn concentration in Femur: 36.3 ^a μg/g FW
[4]; [9]
  Zn concentration in Femur: 81.4 ^c μg/g FW
[4]; [10]
  Zn concentration in Femur: 55.4 ^b μg/g FW
[5]; 10 ppm Zn + 0.4% PA (group II)
  Feed intake Total: 166 ^a g/28d
  Feed intake d1-d7: 37.4 ^a g
  Feed intake d8-d14: 42.3 ^a g
  Feed intake d15-d21: 40.5 ^a g
  Feed intake d22-d28: 45.3 ^a g
  Live weight d7: 62.0^a g
  Live weight d14: 84.6^a g
  Live weight d21: 94.2^a g
  Live weight d28: 106.5^a g
  LW Gain: 60.7^a g
  Live weight d0: 45.8 g
[5]; [9]
  Feed intake Total: 272 ^b g/28d
  Feed intake d1-d7: 40.4 ^ab g
  Feed intake d8-d14: 67.8 ^bc g
  Feed intake d15-d21: 77.5 ^bc g
  Feed intake d22-d28: 86.6 ^b g
  Live weight d7: 58.1^ab g
  Live weight d14: 104.2^ab g
  Live weight d21: 141.3^bc g
  Live weight d28: 175.8^bc g
  LW Gain: 128.5^bc g
  Live weight d0: 47.3 x g
[5]; [10]
  Feed intake Total: 253 ^b g/28d
  Feed intake d1-d7: 49.6 ^ab g
  Feed intake d8-d14: 61.0 ^b g
  Feed intake d15-d21: 67.9 ^b g
  Feed intake d22-d28: 74.8 ^b g
  Live weight d7: 68.4^ab g
  Live weight d14: 102.4^ab g
  Live weight d21: 132.3^b g
  Live weight d28: 161.9^b g
  LW Gain: 114.7^b g
  Live weight d0: 47.2 g

## [Cl-].[Cl-].[Zn+2] [ZnCl2]
[7]
  bioavailability of Zn2+ from organic or inorganic sources: roughly comparable

## O=C(O)C(=O)O [oxalic acid]
[8]
  effects on Zn bioavailability (results of previous studies): not uniform

## O=C(O)c1ccccn1 [picolinic acid]
[8]
  effects on Zn bioavailability (results of previous studies): not uniform
